# Results: PMC6792352, “Limited Chemical Structural Diversity Found to Modulate Thyroid Hormone Receptor in the Tox21 Chemical Library” (Environmental Health Perspectives, 2019)
# Structures can show the parent of a compound that is named as a salt.
# Test: in vitro
# Details: rat, gh3-tre-luc cells
SMILES,CC50 at 24 h (AC50 (uM) modified / 1000),further results
O=C1CC2CC1C1CCCC21 (stereo not drawn) [Corodane],> 90 µM,
CC1=CC(=O)CCC1 [3-Methyl-2-cyclohexen-1-one],> 90 µM,
C=Cc1ccc(C(C)(C)C)cc1 [4-tert-Butylstyrene],> 90 µM,
C=CC(O)CCCCC (stereo not drawn) [1-Octen-3-ol],> 90 µM,
"CC=C(Cl)Cl [1,1-Dichloropropene]",> 90 µM,
C[C@@H]1C[C@H]2[C@@H]3CCC4=CC(=O)C=C[C@]4(C)[C@@]3(Cl)[C@@H](O)C[C@]2(C)[C@@]1(OC(=O)c1ccco1)C(=O)CCl [Mometasone furoate],> 20 µM,
CCCCCCCC(=O)Oc1c(Br)cc(C#N)cc1Br [Bromoxynil octanoate],> 90 µM,
CN1C(=O)N(c2ccccc2Br)Cc2cnc(Nc3ccc4c(c3)OCC(CO)O4)nc21 (stereo not drawn) [PharmaGSID_48519],37.2 µM,
CCOC(=O)c1ccc(C)cc1 [Ethyl 4-methylbenzoate],> 90 µM,
COCC1=C(C(=O)OC(C)OC(=O)OC(C)C)N2C(=O)[C@@H](NC(=O)/C(=N\OC)c3csc(N)n3)[C@H]2SC1 (stereo partly drawn) [Cefpodoxime proxetil],> 50 µM,
CC12CCC(C[N+](C)(CCC[N+](C)(C)C)C1)C2(C)C (stereo not drawn) [Trimethidinium methyl sulfate],> 50 µM,
COc1cccc(C(=O)CCN[C@@H](C)[C@H](O)c2ccccc2)c1 [l-Oxyfedrine hydrochloride],13.4 µM,
NC(=O)c1cc[n+](CC2=C(C(=O)[O-])N3C(=O)[C@@H](NC(=O)Cc4cccs4)[C@H]3SC2)cc1 [Cefalonium],> 20 µM,
CCCCc1ccc(O)cc1 [4-Butylphenol],92.9 µM,
CC1(C)OC[C@@H]2O[C@@]3(C(=O)O)OC(C)(C)O[C@H]3[C@@H]2O1 [Dikegulac],> 90 µM,
Oc1ccc2c(c1)Cc1ccccc1-2 [2-Hydroxyfluorene],77.9 µM,
NCc1cccnc1 [3-(Aminomethyl)pyridine],> 90 µM,
CO[C@H]1C[C@H](O[C@H]2[C@H](C)[C@@H](O[C@@H]3O[C@H](C)C[C@H](N(C)C)[C@H]3OC(C)=O)[C@@H](C)C[C@@]3(CO3)C(=O)[C@H](C)[C@@H](OC(C)=O)[C@@H](C)[C@@H](C)OC(=O)[C@@H]2C)O[C@@H](C)[C@@H]1OC(C)=O [Troleandomycin],> 20 µM,
ClC(Cl)Cl [Chloroform],> 90 µM,
O=C(CCl)Nc1ccccc1 [2-Chloro-N-phenylacetamide],23.7 µM,
CCCC(=O)Nc1ccc(OCC(O)CNC(C)C)c(C(C)=O)c1 (stereo not drawn) [Acebutolol hydrochloride],> 20 µM,
C=CCCC#N [4-Pentenenitrile],> 90 µM,
C[Si](C)(C)O[Si](O)(O)O [Trimethylsilyl silicate],> 90 µM,
"Brc1ccc(Br)c(Br)c1 [1,2,4-Tribromobenzene]",> 90 µM,
CC[N+](C)(C)Cc1ccccc1Br [Bretylium tosylate],> 20 µM,

SMILES,CC50 at 24 h (AC50 (uM) modified / 1000),further results
CNCCC=C1c2ccccc2CCc2ccccc21 [Nortriptyline hydrochloride],12.6 µM,
COc1cc([N+](=O)[O-])ccc1N [2-Methoxy-4-nitroaniline],40.9 µM,
CCCCCCCCCCOCC(O)CN (stereo not drawn) [Decominol hydrochloride],6.25 µM,
CCCCNCC(O)c1ccc(O)cc1 (stereo not drawn) [Bamethan],> 50 µM,
C[C@@H]1C[C@H]2[C@@H]3C[C@H](F)C4=CC(=O)C=C[C@]4(C)[C@@]3(Cl)[C@@H](O)C[C@]2(C)[C@H]1C(=O)COC(=O)C(C)(C)C [Clocortolone pivalate],> 50 µM,
Clc1ccc2c(c1)C(c1ccccc1)=NCc1nncn1-2 [Estazolam],> 50 µM,
COc1cc(OC)nc(Sc2cccc(Cl)c2C(=O)O)n1 [Pyrithiobac-sodium],> 90 µM,
"O=c1cc(-c2ccccc2)oc2ccc3ccccc3c12 [5,6-Benzoflavone]",> 90 µM,
"CCC(C)Nc1ccc(NC(C)CC)cc1 (stereo not drawn) [N,N'-Bis(1-methylpropyl)-1,4-benzenediamine]",14 µM,
"Nc1ccc(Cl)cc1Cl [2,4-Dichloroaniline]",> 90 µM,
"Cc1cc(C(C)(C)c2ccc(O)c(C)c2)ccc1O [3,3'-Dimethylbisphenol A]",> 90 µM,
CCCCOc1ccc(N)cc1 [4-Butyloxyaniline],> 90 µM,
Cc1ccc(O)c([N+](=O)[O-])c1 [4-Methyl-2-nitrophenol],> 90 µM,
C/C=C(\C)C(=O)OCC/C=C\CC [(3Z)-Hex-3-en-1-yl (2E)-2-methylbut-2-enoate],> 90 µM,
CC1CC(CC2CCC(N)C(C)C2)CCC1N (stereo not drawn) [Bis(4-amino-3-methylcyclohexyl)methane],46.8 µM,
CCOC(=O)COc1cc(-c2nn(C)c(OC(F)F)c2Cl)c(F)cc1Cl [Pyraflufen-ethyl],,"CC50 at 24 h (AC50 (uM) modified / 1000, Tox21_110001=Tox21_300698, viability, 1 nM T3 present, 24 h): > 90 µM"
CC1CC[C@@H]2C[C@H]1C2(C)C (stereo partly drawn) [Pinane],> 90 µM,
O=C(O)CS [Thioglycolic acid],> 90 µM,
CCOC(=O)OC(C)OC1=C(C(=O)Nc2ccccn2)N(C)S(=O)(=O)c2ccccc21 (stereo not drawn) [Ampiroxicam],> 50 µM,
CC(C)C(=O)OC/C=C/c1ccccc1 [3-Phenylprop-2-en-1-yl 2-methylpropanoate],> 90 µM,
"Clc1cc2c(cc1Cl)Oc1cc(Cl)c(Cl)cc1O2 [2,3,7,8-Tetrachlorodibenzo-p-dioxin]",,"CC50 at 24 h (AC50 (uM) modified / 1000, Tox21_110001=Tox21_202792, viability, 1 nM T3 present, 24 h): > 0.3 µM"
CC(C)(C)C(=O)c1ccccc1 [tert-Butyl phenyl ketone],> 90 µM,
C[C@H]1[C@H](OC(=O)CCC(=O)O)O[C@@H]2O[C@@]3(C)CC[C@H]4[C@H](C)CC[C@@H]1[C@@]24OO3 [Artesunate],2.69 µM,
COC(C)(C)CCO [3-Methoxy-3-methylbutan-1-ol],> 90 µM,
COc1cc2c(Nc3ccc(Br)cc3F)ncnc2cc1OCC1CCN(C)CC1 [Vandetanib],3.74 µM,

SMILES,CC50 at 24 h (AC50 (uM) modified / 1000),further results
Cc1nnc(NS(=O)(=O)c2ccc(N)cc2)s1 [Sulfamethizole],> 50 µM,
C=C(C)C(=O)OCCCCCCCCCCCCC [Tridecyl methacrylate],> 90 µM,
CC(=O)O[C@H]1C(=O)[C@@]2(C)[C@H]([C@H](OC(=O)c3ccccc3)[C@]3(O)C[C@H](OC(=O)[C@H](O)[C@@H](NC(=O)c4ccccc4)c4ccccc4)C(C)=C1C3(C)C)[C@]1(OC(C)=O)CO[C@@H]1C[C@@H]2O [Paclitaxel],0.25 µM,
CCN(CC)C(C)C(=O)c1ccccc1 (stereo not drawn) [Diethylpropion hydrochloride],> 50 µM,
Nc1c(Br)cc(Br)cc1CN[C@H]1CC[C@H](O)CC1 [Ambroxolhydrochloride],> 50 µM,
CC[N+](C)(CC)CCOC(=O)C1c2ccccc2Oc2ccccc21 [Methantheline bromide],> 50 µM,
CCC(=O)O[C@@H](O[P@](=O)(CCCCc1ccccc1)CC(=O)N1C[C@H](C2CCCCC2)C[C@H]1C(=O)O)C(C)C [Fosinopril sodium],> 50 µM,
Cc1ccccc1CNc1ncnc2c1ncn2[C@@H]1O[C@H](CO)[C@@H](O)[C@H]1O [Metrifudil],> 50 µM,
CC/C=C\C/C=C\C/C=C\CCCCCCCC(=O)OCC [Ethyl linolenate],> 90 µM,
"CCC(CO)CO [2-Ethylpropane-1,3-diol]",> 90 µM,
CN(C)c1ccc(SC#N)cc1 [4-(Dimethylamino)phenylthiocyanate],> 90 µM,
N#Cc1cscn1 [4-Thiazolecarbonitrile],> 90 µM,
O=Cc1ccc(Cl)cc1 [4-Chlorobenzaldehyde],> 90 µM,
COc1ccc(C(=O)NCc2ccc(OCCN(C)C)cc2)cc1OC [Itopride hydrochloride],> 50 µM,
"O=C(O)c1cc(Cl)cc(Cl)c1O [3,5-Dichlorosalicylic acid]",> 90 µM,
COC(=O)c1ccccc1O [Methyl salicylate],> 90 µM,
O=C(Cl)/C=C/C(=O)Cl [Fumaryl chloride],> 90 µM,
O=C(Oc1ccc(Br)cc1)N1CCN2CCC1CC2 [SSR180711],44 µM,
O=Cc1ccco1 [Furfural],> 90 µM,
ClCc1ccccc1Cl [2-Chlorobenzyl chloride],,"CC50 at 24 h (AC50 (uM) modified / 1000, Tox21_110001=Tox21_201089, viability, 1 nM T3 present, 24 h): > 90 µM"
"CC(C)(CO)COC(=O)C(C)(C)CO [3-Hydroxy-2,2-dimethylpropyl 3-hydroxy-2,2-dimethylpropanoate]",> 90 µM,
O=C(O)/C=C/c1ccc(Cn2ccnc2)cc1 [Ozagrel hydrochloride],> 20 µM,
CCOP(=S)(OCC)SC(CCl)N1C(=O)c2ccccc2C1=O (stereo not drawn) [Dialifor],,"CC50 at 24 h (AC50 (uM) modified / 1000, Tox21_110001=Tox21_300794, viability, 1 nM T3 present, 24 h): > 90 µM"
CO[Si](OC)(OC)c1ccccc1 [Trimethoxyphenylsilane],> 90 µM,
"Clc1nc(Cl)nc(Cl)n1 [2,4,6-Trichloro-s-triazine]",,"CC50 at 24 h (AC50 (uM) modified / 1000, Tox21_110001=Tox21_202449, viability, 1 nM T3 present, 24 h): > 90 µM"
